Where “and” joins values, the source holds several entries; their conditions need not be identical. Identical values can stand only once. Entries after “also recorded” stand apart in the source; their conditions may differ. Counter-ions that a name gives are not always drawn. Like-named read-outs stand apart in the source and are kept apart here.
Experiments:
[1] = both, Hartley, guinea pig, in vivo, po, 60 mg/kg
[2] = test system: Vero E6, Hep G2, HeLa, Huh 7 cells
EBOV-eGFP [3] = details: cited from earlier work
[4] = test system: EBOV/Kik (Ebola virus Kikwit variant); details: cited from earlier work
[5] = test system: EBOV/Kik (Ebola virus Kikwit variant); type: cell-based
in vivo = details: Hartley, guinea pig, po, 60 mg/kg; for AUC(0-inf): AUCinf (h·ng/ml); for AUC(0-t): AUClast (h·ng/ml); for Cmax: Cmax (ng/ml)
EBOV-eGFP [6] = type: cell-based, Ebola virus
Ebola virus disease = details: human, in vivo; cited from earlier work
[7] = test system: EBOV/Mak (Ebola virus Makona variant); type: cell-based

Nc1ccn([C@@H]2CS[C@H](CO)O2)c(=O)n1 [Lamivudine]
AUCinf higher in male compared with female guinea pigs [1]: about 34% | time of small second peak of plasma concentration [1]: 4 to 6 h | cytotoxicity [2]: minimal cytotoxicity | IC25 (EBOV-eGFP [3]): 43.13 µM | inhibition of viral replication (maximum) (EBOV-eGFP [3]): ≤ 45% | IC50 [4]: > 320 µM | antiviral activity against EBOV/Kik [5]: no detectable antiviral activity | IC50 ([5]; read-out: IC50): > 320 µM | Tmax (in vivo; both, time to reach peak plasma concentrations): ≤ 1 h | AUC(0-inf) (in vivo; female): 12.6 µg·h/mL | AUC(0-t) (in vivo; female): 14.6 µg·h/mL | Cmax (in vivo; female): 4.11 µg/mL | Tmax (in vivo; female, Tmax (hr)): 1 h | AUC(0-inf) (in vivo; male): 16.8 µg·h/mL | AUC(0-t) (in vivo; male): 15.5 µg·h/mL | Cmax (in vivo; male): 4.56 µg/mL | Tmax (in vivo; male, Tmax (hr)): 1 h | anti-EBOV activity against EBOV-eGFP (EBOV-eGFP [6]): None of these compounds showed any anti-EBOV activity | patients successfully treated (Ebola virus disease): 13 out of 15 | anti-EBOV activity [7]: No significant anti-EBOV activity | antiviral activity against EBOV/Mak [7]: did not show antiviral activity; also recorded: did not demonstrate any antiviral activity | antiviral activity against EBOV/Mak infection in MDMs [7]: did not demonstrate any antiviral activity | antiviral activity with extended drug pre-treatment [7]: did not improve | viral inhibition (maximum achieved) ([7]; 320 µM): ≤ 30% | IC50 ([7]; read-out: IC50): > 320 µM

CN(C)CCOc1ccc(/C(=C(/CCCl)c2ccccc2)c2ccccc2)cc1 [Toremifene, Toremifene citrate]
doses at which cytotoxicity increased (human MDMs): ≥ 10 µM | IC50 [4]: ~25 µM and 18.3 µM | IC50 ([5]; read-out: IC50s (range over cell lines)): 2.2 to 9.9 µM | antiviral activity against EBOV/Mak [7]: strong antiviral activity | IC50 ([7]; read-out: IC50): 1.2 ± 0.1 µM | IC50 ([7]; read-out: IC50s (range) in MDMs): 2.1 to 4.5 µM

Cc1cn([C@H]2C[C@H](N=[N+]=[N-])[C@@H](CO)O2)c(=O)[nH]c1=O [Zidovudine]
cytotoxicity [2]: minimal cytotoxicity | IC50 [4]: > 320 µM | antiviral activity against EBOV/Kik [5]: no detectable antiviral activity | IC50 ([5]; read-out: IC50): > 320 µM | anti-EBOV activity against EBOV-eGFP (EBOV-eGFP [6]): None of these compounds showed any anti-EBOV activity | antiviral activity against EBOV/Mak [7]: did not show antiviral activity | antiviral activity against EBOV/Mak infection in MDMs [7]: did not demonstrate any antiviral activity

Reference: paper PMC5130197 (PLoS ONE, 2016)
